In patent US20190111040A1, “IN VIVO AMELIORATION OF ENDOGENOUS ANTI-TUMOR AUTOANTIBODIES TARGETING SURFACE TUMOR ANTIGENS VIA LOW-DOSE P4N” (THE JOHNS HOPKINS UNIVERSITY, priority 2016, published 2019):
Structures can show the parent of a compound that is named as a salt.

Experiments:
[1] = system: human PBMCs; test: Activin A and BAFF expression in human PBMCs; type: cell-based; details: low dose P4N (3 μM)
Procedure: FIGS. 5A-5F depict the expression of Activin A/BAFF induced by P4N treatments. (A) P4N induced Activin A or BAFF expression in human PBMCs as determined by RT-PCR. S1-S5 display different individual blood samples collected from 5 different human donors; N, no treatment; P, P4N-treatment (3 μM). The change in Activin A and BAFF expression (mean of 5 patients) relative to the control (NC) is plotted as a histogram (B) The effect of increasing dosages of P4N for 12 h on mRNA and protein levels of Activin A or BAFF in THP-1 cells was analyzed by RT-PCR and ELISA. (C) The effect of 6 μM P4N on mRNA and protein levels of Activin A or BAFF in THP-1 cells was determined at a different time period. (D) The effect of different inhibitors on Activin A-induced BAFF expression was examined. The expression of BAFF mRNA in inhibitor-treated THP-1 cells was determined by RT-PCR, and (E) BAFF protein secretion was measured by ELISA. (F) The effect of THP-1 conditioned media on the proliferation of Raji cells and OKT3 hybridoma cells were determined. […] The results are expressed as % viable cells relative to the control (NC, media from untreated THP-1 cells). […]
Reverse transcription PCR. Human PBMCs or THP-1 cells were treated with P4N, and then the mRNA expression of INHBA and BAFF in these cells was measured by reverse transcription PCR. […]

[2] = system: CT26 tumors; test: P4N treatments in vivo, CT-26 tumors in nude mice; parameters: species or system nude mice (BALB/c/nu); details: immunodeficient nude mice, one intratumoral injection of 2.5 mg/kg or 5 mg/kg
Procedure: (§1) P4N treatments in vivo. BALB/c or BALB/c/nu mice (6 week old) were inoculated subcutaneously with 1×10^6 CT-26 cells in 100 μl PBS. When the average tumor mass reached 50 mm^3, the animals were treated with 2.5 mg/kg or 5 mg/kg of P4N in one intratumoral injection. Subsequently, the tumor volumes were measured using a caliper every 2 days, and the volumes were calculated using the following formula: volume (mm^3)=length×width×height. Before sacrifice, the sera of the mice were collected for experimental use.

[3] = system: mouse splenocytes; test: Effect of P4N on B cell lineage in mouse splenocytes in vitro; type: cell-based
Procedure: The effect of P4N on changes in B cell lineage in vitro. Single cell suspensions of mouse splenocytes were obtained by grinding the spleens from healthy mice. The suspended splenocytes were treated with or without 0.1 or 0.2 μM of P4N for 48 h, and the percentage of naïve B cells, activated B cells, B1 cells or Breg cells were measured after staining with the following fluorochrome conjugates using flow cytometry (BD Biosciences): anti-CD19-FITC, anti-CD-23-APC, anti-CD-38-APC, anti-CD5-PE or anti-CD1d-Alexa 647 (BioLegend, San Diego, Calif.). The cell types were defined as follows: naïve B cells (CD19+CD23+), activated B cells (CD19+CD38+), B1 cells (CD19+CD5+) and Breg cells (CD19+CD5+CD1d+). The indices of different types of B cell proliferation were calculated as follows: (the number of splenocytes×the percentage of each B cell population in treated splenocytes)/(the number of splenocytes×the percentage of each B cell population in untreated splenocytes).

[4] = system: CT26 tumors; test: P4N treatments in vivo, CT-26 tumors in BALB/c mice; details: one intratumoral injection of 2.5 mg/kg or 5 mg/kg
Procedure: as §1

[5] = system: THP-1 cells; test: Cytokine and chemokine production of P4N treated THP-1, Bio-Plex and ELISA; type: cell-based, human
Procedure: THP-1 cells were treated with 3 μM of P4N or the vehicle control (NC) for 24 h. Supernatants were collected and analyzed using the Bio-Plex assay for human cytokines. Shown are the concentrations of 27 human cytokines for each treatment from three independent experiments. The levels of IL-2, IL-4, IL-6, IL-7, IL-9, IL13, IL-15, Eotaxin, G-CSF, IFN-γ and PDGF-bb were undetectable.
FIG. 13 provides graphs showing P4N-induced pro-inflammatory cytokine production in THP-1 cells. THP-1 cells were treated with 3 μM P4N for different lengths of time, Cell supernatants were collected and TNF-α, IL-1β and IL-8 quantitated by ELISA. All results are the mean of three independent experiments (n=6).

[6] = THP-1 monocytes, 3 μM P4N, ELISA

In the case of `C[C@H](Cc1ccc(OCCN2CCCCC2)c(OCCN2CCCCC2)c1)[C@@H](C)Cc1ccc(OCCN2CCCCC2)c(OCCN2CCCCC2)c1` [P4N, meso-2,3-dimethyl-1,4-bis(3,4-[2-(piperidino)ethoxyphenyl])butane tetrakishydrochloride salt], the “gene expression and protein production of Activin A and BAFF” value [1] is reported as “increase their gene expression and protein production”, the “growth of CT26 tumors” value [2] is reported as “had no effect” and the “total B cell proliferation in mouse splenocytes” value ([3]; 48 h) is reported as “increased total B cell proliferation”. For the same compound, the “number of activated B cells” value ([3]; absence of antigen stimulation) was “had no effect”, the “growth of CT26 tumors” value [4] was “significantly inhibited” and the “levels of IL-2, IL-4, IL-6, IL-7, IL-9, IL13, IL-15, Eotaxin, G-CSF, IFN-γ and PDGF-bb” value ([5]; THP-1, 3 μM P4N, 24 h) was “undetectable”. The “expression of pro-inflammatory cytokines and chemokines” value ([5]; THP-1, 3 μM P4N, 24 h, Bio-Plex) was “increased the expression”, the “time of stimulated IL-8 release” value [5, 6] was ≥ 8 h and the “time to induction of TNF-α and IL-1β expression” value [5, 6] was ≤ 4 h.
